Assay results reported in ChEMBL document CHEMBL4340533, “Discovery of an EGFR tyrosine kinase inhibitor from Ilex latifolia in breast cancer therapy” (Bioorg Med Chem Lett, 2019).
Activity calls are given as the source filed them. The calls are words filed in the database; no cut-off is given here.

What was measured:
MDA-MB-231 [1] = test: Induction of apoptosis in human MDA-MB-231 cells assessed as increase in apoptotic cells after 24 hrs in presence of EGFR siRNA by Annexin-V-FITC/propidium iodide staining based FACS analysis; format: functional, cell-based
MDA-MB-231 [2] = test: Antitumor activity against human MDA-MB-231 cells xenografted in athymic BALB/c nude mouse assessed as decrease in tumor volume at 1.25 to 5 mg/kg, […] administered every two days for 28 days measured post-last dose by caliper method; format: functional, organism-based
Mus musculus [3] = test: Down regulation of AKT phosphorylation in athymic BALB/c nude mouse xenografted with human MDA-MB-231 cells at 1.25 to 5 mg/kg, sc administered every two days for 28 days by Western blot analysis; format: functional, organism-based
MDA-MB-231 [4] = test: Induction of apoptosis in human MDA-MB-231 cells assessed as down regulation of PARP1 expression by Western blot analysis; format: functional, cell-based
Mus musculus [5] = test: Effect on RAF expression in athymic BALB/c nude mouse xenografted with human MDA-MB-231 cells at 1.25 to 5 mg/kg, sc administered every two days for 28 days by Western blot analysis; format: functional, organism-based
Mus musculus [6] = test: Down regulation of PI3K expression athymic BALB/c nude mouse xenografted with human MDA-MB-231 cells at 1.25 to 5 mg/kg, sc administered every two days for 28 days by Western blot analysis; format: functional, organism-based
[7] = molecular target: Epidermal growth factor receptor (Homo sapiens) (UniProt P00533); test: Inhibition of EGFR phosphorylation in human MDA-MB-231 cells by Western blot analysis; format: cell-based
Chain of Epidermal growth factor receptor (Homo sapiens) (P00533 whole entry): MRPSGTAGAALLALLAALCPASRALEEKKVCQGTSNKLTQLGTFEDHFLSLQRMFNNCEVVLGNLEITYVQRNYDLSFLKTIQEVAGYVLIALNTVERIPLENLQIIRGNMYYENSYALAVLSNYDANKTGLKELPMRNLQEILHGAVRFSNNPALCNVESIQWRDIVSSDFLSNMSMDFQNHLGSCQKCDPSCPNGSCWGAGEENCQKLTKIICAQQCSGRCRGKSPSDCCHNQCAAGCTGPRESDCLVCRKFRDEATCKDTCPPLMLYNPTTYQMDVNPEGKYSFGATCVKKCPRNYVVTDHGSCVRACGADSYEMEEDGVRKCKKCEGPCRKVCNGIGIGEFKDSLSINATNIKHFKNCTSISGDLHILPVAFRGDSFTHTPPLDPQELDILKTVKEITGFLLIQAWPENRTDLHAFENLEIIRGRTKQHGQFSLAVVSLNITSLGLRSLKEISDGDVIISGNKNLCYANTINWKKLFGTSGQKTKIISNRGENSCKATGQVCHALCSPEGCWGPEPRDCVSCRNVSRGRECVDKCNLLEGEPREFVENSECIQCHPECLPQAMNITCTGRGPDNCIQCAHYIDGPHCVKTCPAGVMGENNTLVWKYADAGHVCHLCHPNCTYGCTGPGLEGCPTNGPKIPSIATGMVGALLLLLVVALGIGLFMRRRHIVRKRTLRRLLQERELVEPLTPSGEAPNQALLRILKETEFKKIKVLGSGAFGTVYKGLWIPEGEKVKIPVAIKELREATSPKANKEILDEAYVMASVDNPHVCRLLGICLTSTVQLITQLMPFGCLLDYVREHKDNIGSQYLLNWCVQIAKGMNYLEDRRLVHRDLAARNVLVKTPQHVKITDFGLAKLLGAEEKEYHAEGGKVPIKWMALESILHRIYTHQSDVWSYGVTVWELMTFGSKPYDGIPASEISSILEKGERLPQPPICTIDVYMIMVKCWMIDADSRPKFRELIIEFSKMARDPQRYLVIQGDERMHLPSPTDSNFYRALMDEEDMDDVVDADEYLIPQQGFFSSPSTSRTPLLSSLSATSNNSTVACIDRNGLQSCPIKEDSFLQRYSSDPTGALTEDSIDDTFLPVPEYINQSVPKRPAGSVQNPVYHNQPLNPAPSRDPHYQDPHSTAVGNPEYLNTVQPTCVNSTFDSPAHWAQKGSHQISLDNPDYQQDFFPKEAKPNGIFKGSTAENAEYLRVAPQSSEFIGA

Mus musculus [8] = test: Induction of ERK phosphorylation in athymic BALB/c nude mouse xenografted with human MDA-MB-231 cells at 1.25 to 5 mg/kg, sc administered every two days for 28 days by Western blot analysis; format: functional, organism-based
MDA-MB-231 [9] = test: Induction of apoptosis in human MDA-MB-231 cells assessed as increase in cleaved caspase 3 expression at 20 to 80 ug/ml by Western blot analysis; format: functional, cell-based
Mus musculus [10] = test: Effect on MEK phosphorylation in athymic BALB/c nude mouse xenografted with human MDA-MB-231 cells at 1.25 to 5 mg/kg, sc administered every two days for 28 days by western blot analysis; format: functional, organism-based
MDA-MB-231 [11] = test: Antiproliferative activity against human MDA-MB-231 cells assessed as reduction in cell viability after 24 hrs by MTT assay; format: functional, cell-based
[12] = test system: Epidermal growth factor receptor (Homo sapiens), P00533 [L858R]; test: Inhibition of EGFR L858R mutant (unknown origin) using polyE4Y1 as substrate measured after 60 mins
Chain of Epidermal growth factor receptor (Homo sapiens), P00533 [L858R] (P00533 whole entry L858R): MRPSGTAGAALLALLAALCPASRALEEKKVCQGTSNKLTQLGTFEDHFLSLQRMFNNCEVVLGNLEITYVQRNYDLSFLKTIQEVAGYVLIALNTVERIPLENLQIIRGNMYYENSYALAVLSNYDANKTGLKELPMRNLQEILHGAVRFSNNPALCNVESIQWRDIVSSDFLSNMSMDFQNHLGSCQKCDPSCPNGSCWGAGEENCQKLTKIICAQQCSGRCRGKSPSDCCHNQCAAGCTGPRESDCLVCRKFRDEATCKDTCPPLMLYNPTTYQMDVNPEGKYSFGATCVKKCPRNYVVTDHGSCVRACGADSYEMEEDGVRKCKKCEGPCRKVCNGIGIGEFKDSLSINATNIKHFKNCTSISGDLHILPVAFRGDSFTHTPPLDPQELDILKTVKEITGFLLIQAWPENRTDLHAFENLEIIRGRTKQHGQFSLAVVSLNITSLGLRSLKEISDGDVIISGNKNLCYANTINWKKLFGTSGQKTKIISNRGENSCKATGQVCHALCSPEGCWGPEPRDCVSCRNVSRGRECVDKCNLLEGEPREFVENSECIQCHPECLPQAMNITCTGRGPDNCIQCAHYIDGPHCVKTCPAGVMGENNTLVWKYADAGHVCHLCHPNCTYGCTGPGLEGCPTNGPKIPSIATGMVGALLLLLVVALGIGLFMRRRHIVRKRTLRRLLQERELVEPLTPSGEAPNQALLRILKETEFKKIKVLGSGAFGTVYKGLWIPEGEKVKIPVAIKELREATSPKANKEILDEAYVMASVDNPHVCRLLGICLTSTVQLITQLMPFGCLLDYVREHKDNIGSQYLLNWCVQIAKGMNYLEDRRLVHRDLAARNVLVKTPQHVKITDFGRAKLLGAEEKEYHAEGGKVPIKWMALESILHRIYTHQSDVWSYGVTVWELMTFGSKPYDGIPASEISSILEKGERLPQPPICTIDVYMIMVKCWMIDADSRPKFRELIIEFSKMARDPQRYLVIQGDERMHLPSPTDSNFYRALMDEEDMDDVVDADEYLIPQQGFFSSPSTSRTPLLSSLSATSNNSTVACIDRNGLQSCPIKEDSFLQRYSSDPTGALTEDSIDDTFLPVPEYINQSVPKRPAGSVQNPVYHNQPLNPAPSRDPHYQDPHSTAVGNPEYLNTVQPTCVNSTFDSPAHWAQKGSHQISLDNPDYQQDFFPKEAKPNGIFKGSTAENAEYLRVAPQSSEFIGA

MDA-MB-231 [13] = test: Induction of apoptosis in human MDA-MB-231 cells assessed as early apoptotic cells at 80 ug/ml after 24 hrs by Annexin-V-FITC/propidium iodide staining based FACS analysis relative to control; format: functional
Mus musculus [14] = test: Down regulation of RAS expression in athymic BALB/c nude mouse xenografted with human MDA-MB-231 cells at 1.25 to 5 mg/kg, sc administered every two days for 28 days by Western blot analysis; format: functional, organism-based
MDA-MB-231 [15] = test: Induction of apoptosis in human MDA-MB-231 cells assessed as increase in late apoptotic cells at 20 to 40 ug/ml after 24 hrs by Annexin-V-FITC/propidium iodide staining based FACS analysis; format: functional, cell-based
MDA-MB-231 [16] = test: Induction of apoptosis in human MDA-MB-231 cells assessed as increase in apoptotic cells after 24 hrs in presence of lapatinib by Annexin-V-FITC/propidium iodide staining based FACS analysis; format: functional, cell-based
Mus musculus [17] = test: Down regulation of mTOR expression in athymic BALB/c nude mouse xenografted with human MDA-MB-231 cells at 1.25 to 5 mg/kg, sc administered every two days for 28 days by Western blot analysis; format: functional, organism-based
Mus musculus [18] = test: Increase in ERK expression in athymic BALB/c nude mouse xenografted with human MDA-MB-231 cells at 1.25 to 5 mg/kg, sc administered every two days for 28 days by Western blot analysis; format: functional, organism-based
Mus musculus [19] = test: Effect on MEK expression in athymic BALB/c nude mouse xenografted with human MDA-MB-231 cells at 1.25 to 5 mg/kg, sc administered every two days for 28 days by western blot analysis; format: functional, organism-based

- inhibition [7]: Active
- inhibition [12]: Dose-dependent effect
Structure (SMILES): C[C@H]1[C@H](C)CC[C@]2(C(=O)O)CC[C@]3(COC(=O)/C=C/c4ccc(O)cc4)C(=CC[C@@H]4[C@@]5(C)CC[C@H](O)C(C)(C)[C@@H]5CC[C@]43C)[C@H]12
- Activity (MDA-MB-231 [1]): inactive
- Activity (MDA-MB-231 [2]): Active
- Activity (Mus musculus [3]): Active
- Activity (MDA-MB-231 [4]): Dose-dependent effect
- Activity (Mus musculus [5]): inactive
- Activity (Mus musculus [6]): Active
- Activity (Mus musculus [8]): Active
- Activity (MDA-MB-231 [9]): Active
- Activity (Mus musculus [10]): inactive
- Activity (MDA-MB-231 [11]): Dose-dependent effect
- Activity (MDA-MB-231 [13]): 42.03%
- Activity (Mus musculus [14]): Active
- Activity (MDA-MB-231 [15]): Active
- Activity (MDA-MB-231 [16]): inactive
- Activity (Mus musculus [17]): Active
- Activity (Mus musculus [18]): Active
- Activity (Mus musculus [19]): inactive
